Source: patent US20110166112A1, “METHOD FOR STIMULATING PLATELET PRODUCTION” (Eisai, Inc., priority 2009, published 2011)

System: subjects with chronic ITP
Test: Combined 28-day and 6-month rollover studies of E5501: safety (TEAEs, serious TEAEs, thromboembolic events, neoplasms, liver toxicity, discontinuations)
Format: in vivo, human
From the text: Primary Endpoint: The primary endpoint was to assess the safety and tolerability to E5501, including AEs and clinical laboratory parameters, over the 6 additional months of treatment.
In this way, safety data reflect each subject's complete duration of exposure to E5501 starting with lead-in the previous study and continuing into the current study.
Following Protocol Amendment 4, the current study contained a flexible dose regimen; therefore, this study was considered to have an open-label, uncontrolled, single-arm design. […] This was the method used to assess safety. • Grouping method B was based on both treatment received and day 28 platelet response to study drug in Study the previous study. This was the method used for the analysis of efficacy for the FAS and the SE population.
Overall Adverse Events. […] The primary focus is on summary statistics for the entire safety population and provides an overall safety profile for E5501. The summary statistics for each group, e.g., lower ⅓, middle ⅓ and upper ⅓ average daily dose levels, is secondary and provides further safety information across the 3 dose levels.

[1] = Lower ⅓ dose (2.5-<8.85 mg), N=22

SMILES: O=C(Nc1nc(-c2cc(Cl)cs2)c(N2CCN(C3CCCCC3)CC2)s1)c1cnc(N2CCC(C(=O)O)CC2)c(Cl)c1 [E5501, 1-(3-chloro-5-{[4-(4-chlorothiophen-2-yl)-5-(4-cyclohexylpiperazin-1-yl)thiazol-2-yl]carbamoyl}pyridine-2-yl)piperidine-4-carboxylic acid]
- tolerability and safety profile (6-month treatment period): well tolerated and demonstrated a favorable safety profile
- Any Serious TEAE, n (%) of subjects (E5501 Total, N=64): 5 (7.8) n (%)
- Serious TEAE Cerebrovascular accident, n (%) of subjects (E5501 Total, N=64): 1 (1.6) n (%)
- Serious TEAE Chest pain, n (%) of subjects (E5501 Total, N=64): 1 (1.6) n (%)
- Serious TEAE Diarrhoea, n (%) of subjects (E5501 Total, N=64): 1 (1.6) n (%)
- Serious TEAE Haemorrhage intracranial, n (%) of subjects (E5501 Total, N=64): 1 (1.6) n (%)
- Serious TEAE Lethargy, n (%) of subjects (E5501 Total, N=64): 1 (1.6) n (%)
- Serious TEAE Mitral valve incompetence, n (%) of subjects (E5501 Total, N=64): 1 (1.6) n (%)
- Serious TEAE Myocardial infarction, n (%) of subjects (E5501 Total, N=64): 1 (1.6) n (%)
- Serious TEAE Nausea, n (%) of subjects (E5501 Total, N=64): 1 (1.6) n (%)
- Serious TEAE Pelvic venous thrombosis, n (%) of subjects (E5501 Total, N=64): 1 (1.6) n (%)
- Serious TEAE Platelet count decreased, n (%) of subjects (E5501 Total, N=64): 1 (1.6) n (%)
- Serious TEAE Pneumonia, n (%) of subjects (E5501 Total, N=64): 1 (1.6) n (%)
- Serious TEAE Pyrexia, n (%) of subjects (E5501 Total, N=64): 1 (1.6) n (%)
- Serious TEAE Thrombocytopenia, n (%) of subjects (E5501 Total, N=64): 1 (1.6) n (%)
- Serious TEAE Transient ischaemic attack, n (%) of subjects (E5501 Total, N=64): 1 (1.6) n (%)
- Serious TEAE Vomiting, n (%) of subjects (E5501 Total, N=64): 2 (3.1) n (%)
- Serious TEAE, SOC Blood and lymphatic system disorders, n (%) of subjects (E5501 Total, N=64): 1 (1.6) n (%)
- Serious TEAE, SOC Cardiac disorders, n (%) of subjects (E5501 Total, N=64): 2 (3.1) n (%)
- Serious TEAE, SOC Gastrointestinal disorders, n (%) of subjects (E5501 Total, N=64): 2 (3.1) n (%)
- Serious TEAE, SOC General disorders and administration site conditions, n (%) of subjects (E5501 Total, N=64): 1 (1.6) n (%)
- Serious TEAE, SOC Infections and infestations, n (%) of subjects (E5501 Total, N=64): 1 (1.6) n (%)
- Serious TEAE, SOC Investigations, n (%) of subjects (E5501 Total, N=64): 1 (1.6) n (%)
- Serious TEAE, SOC Nervous system disorders, n (%) of subjects (E5501 Total, N=64): 3 (4.7) n (%)
- Serious TEAE, SOC Vascular disorders, n (%) of subjects (E5501 Total, N=64): 1 (1.6) n (%)
- Discontinued 501-CL-004, PC increase to ≧500,000/mm^3 (Full Analysis Set, Responders in previous study): 0 n
- Abdominal pain upper, n of subjects [1]: 0
- Any Serious TEAE, n (%) of subjects [1]: 1 (4.5) n (%)
- Any TEAE, % of subjects [1]: (90.9) %
- Any TEAE, n of subjects [1]: 20
- Arthralgia, % of subjects [1]: (4.5) %
- Arthralgia, n of subjects [1]: 1
- Asthenia, % of subjects [1]: (13.6) %
- Asthenia, n of subjects [1]: 3
- Back pain, % of subjects [1]: (4.5) %
- Back pain, n of subjects [1]: 1
- Constipation, n of subjects [1]: 0
- Contusion, % of subjects [1]: (13.6) %
- Contusion, n of subjects [1]: 3
- Cough, % of subjects [1]: (4.5) %
- Cough, n of subjects [1]: 1
- Deaths, n of subjects [1]: 0
- Diarrhoea, % of subjects [1]: (13.6) %
- Diarrhoea, n of subjects [1]: 3
- Dizziness, % of subjects [1]: (4.5) %
- Dizziness, n of subjects [1]: 1
- Dose interruption due to TEAE, % of subjects [1]: (13.6) %
- Dose interruption due to TEAE, n of subjects [1]: 3
- Dyspnoea, % of subjects [1]: (9.1) %
- Dyspnoea, n of subjects [1]: 2
- Ecchymosis, n of subjects [1]: 0
- Epistaxis, % of subjects [1]: (18.2) %
- Epistaxis, n of subjects [1]: 4
- Fatigue, % of subjects [1]: (36.4) %
- Fatigue, n of subjects [1]: 8
- Gingival bleeding, % of subjects [1]: (4.5) %
- Gingival bleeding, n of subjects [1]: 1
- Headache, % of subjects [1]: (18.2) %
- Headache, n of subjects [1]: 4
- Insomnia, % of subjects [1]: (4.5) %
- Insomnia, n of subjects [1]: 1
- Migraine, n of subjects [1]: 0
- Mouth haemorrhage, n of subjects [1]: 0
- Nausea, n of subjects [1]: 0
- Pain in extremity, % of subjects [1]: (9.1) %
- Pain in extremity, n of subjects [1]: 2
- Petechiae, % of subjects [1]: (13.6) %
- Petechiae, n of subjects [1]: 3
- Platelet count increased, % of subjects [1]: (9.1) %
- Platelet count increased, n of subjects [1]: 2
- Serious TEAE Cerebrovascular accident, n (%) of subjects [1]: 0 n (%)
- Serious TEAE Chest pain, n (%) of subjects [1]: 0 n (%)
- Serious TEAE Diarrhoea, n (%) of subjects [1]: 0 n (%)
- Serious TEAE Haemorrhage intracranial, n (%) of subjects [1]: 0 n (%)
- Serious TEAE Lethargy, n (%) of subjects [1]: 0 n (%)
- Serious TEAE Mitral valve incompetence, n (%) of subjects [1]: 0 n (%)
- Serious TEAE Myocardial infarction, n (%) of subjects [1]: 0 n (%)
- Serious TEAE Nausea, n (%) of subjects [1]: 0 n (%)
- Serious TEAE Pelvic venous thrombosis, n (%) of subjects [1]: 0 n (%)
- Serious TEAE Platelet count decreased, n (%) of subjects [1]: 0 n (%)
- Serious TEAE Pneumonia, n (%) of subjects [1]: 0 n (%)
- Serious TEAE Pyrexia, n (%) of subjects [1]: 0 n (%)
- Serious TEAE Thrombocytopenia, n (%) of subjects [1]: 1 (4.5) n (%)
- Serious TEAE Transient ischaemic attack, n (%) of subjects [1]: 0 n (%)
- Serious TEAE Vomiting, n (%) of subjects [1]: 0 n (%)
- Serious TEAE, % of subjects [1]: (4.5) %
- Serious TEAE, SOC Blood and lymphatic system disorders, n (%) of subjects [1]: 1 (4.5) n (%)
- Serious TEAE, SOC Cardiac disorders, n (%) of subjects [1]: 0 n (%)
- Serious TEAE, SOC Gastrointestinal disorders, n (%) of subjects [1]: 0 n (%)
- Serious TEAE, SOC General disorders and administration site conditions, n (%) of subjects [1]: 0 n (%)
- Serious TEAE, SOC Infections and infestations, n (%) of subjects [1]: 0 n (%)
- Serious TEAE, SOC Investigations, n (%) of subjects [1]: 0 n (%)
- Serious TEAE, SOC Nervous system disorders, n (%) of subjects [1]: 0 n (%)
- Serious TEAE, SOC Vascular disorders, n (%) of subjects [1]: 0 n (%)
